{"source": "ChEMBL document CHEMBL5143671", "about": "“Discovery of (R)-(3-fluoropyrrolidin-1-yl)(6-((5-(trifluoromethyl)pyridin-2-yl)oxy)quinolin-2-yl)methanone (ABBV-318) and analogs as small molecule Nav1.7/ Nav1.8 blockers for the treatment of pain” (Bioorg Med Chem, 2022);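 as to logD: distribution coefficient quantified using high-throughput LC-MS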;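 as to solubility: determined using a high-throughput solubility method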", "key": {"[1]": {"experiment": "Drug concentration in plasma of monoiodoacetate-induced Sprague-Dawley rat model of osteoarthritis at 30 mg/kg, po administered for 5 days and measured after 15 mins", "type": "ADME, organism-based", "settings": "time 5 day"}, "in vivo [2]": {"experiment": "in vivo", "settings": "Sprague-Dawley, rat, po"}, "Rattus norvegicus [3]": {"organism": "Rattus norvegicus", "experiment": "animal or person", "settings": "Sprague-Dawley"}, "[4]": {"experiment": "Drug concentration in plasma of monoiodoacetate-induced Sprague-Dawley rat model of osteoarthritis at 10 mg/kg, po administered for 5 days and measured after 15 mins", "type": "ADME, organism-based", "settings": "time 5 day"}, "[5]": {"experiment": "Cardiotoxicity in conscious dog CV model assessed as effect on heart rate upto […] microg/ml by ECG analysis", "type": "toxicity, Canis lupus familiaris", "settings": "dose < 5.5 µg/ml"}, "[6]": {"experiment": "Cardiotoxicity in conscious dog CV model assessed as effect on QT interval upto 5.5 microg/ml by ECG analysis", "type": "toxicity, Canis lupus familiaris", "settings": "dose < 5.5 µg/ml"}, "[7]": {"experiment": "Ratio of free drug concentration in brain to plasma of rat", "type": "ADME, cell-free", "settings": "brain and plasma"}, "[8]": {"experiment": "Drug concentration in plasma of monoiodoacetate-induced Sprague-Dawley rat model of osteoarthritis at 3 mg/kg, po administered for 5 days and measured after 15 mins", "type": "ADME, organism-based", "settings": "time 5 day"}, "[9]": {"target": "Sodium channel protein type 2 subunit alpha (Homo sapiens, UniProt Q99250)", "sequence (Q99250 whole entry)": "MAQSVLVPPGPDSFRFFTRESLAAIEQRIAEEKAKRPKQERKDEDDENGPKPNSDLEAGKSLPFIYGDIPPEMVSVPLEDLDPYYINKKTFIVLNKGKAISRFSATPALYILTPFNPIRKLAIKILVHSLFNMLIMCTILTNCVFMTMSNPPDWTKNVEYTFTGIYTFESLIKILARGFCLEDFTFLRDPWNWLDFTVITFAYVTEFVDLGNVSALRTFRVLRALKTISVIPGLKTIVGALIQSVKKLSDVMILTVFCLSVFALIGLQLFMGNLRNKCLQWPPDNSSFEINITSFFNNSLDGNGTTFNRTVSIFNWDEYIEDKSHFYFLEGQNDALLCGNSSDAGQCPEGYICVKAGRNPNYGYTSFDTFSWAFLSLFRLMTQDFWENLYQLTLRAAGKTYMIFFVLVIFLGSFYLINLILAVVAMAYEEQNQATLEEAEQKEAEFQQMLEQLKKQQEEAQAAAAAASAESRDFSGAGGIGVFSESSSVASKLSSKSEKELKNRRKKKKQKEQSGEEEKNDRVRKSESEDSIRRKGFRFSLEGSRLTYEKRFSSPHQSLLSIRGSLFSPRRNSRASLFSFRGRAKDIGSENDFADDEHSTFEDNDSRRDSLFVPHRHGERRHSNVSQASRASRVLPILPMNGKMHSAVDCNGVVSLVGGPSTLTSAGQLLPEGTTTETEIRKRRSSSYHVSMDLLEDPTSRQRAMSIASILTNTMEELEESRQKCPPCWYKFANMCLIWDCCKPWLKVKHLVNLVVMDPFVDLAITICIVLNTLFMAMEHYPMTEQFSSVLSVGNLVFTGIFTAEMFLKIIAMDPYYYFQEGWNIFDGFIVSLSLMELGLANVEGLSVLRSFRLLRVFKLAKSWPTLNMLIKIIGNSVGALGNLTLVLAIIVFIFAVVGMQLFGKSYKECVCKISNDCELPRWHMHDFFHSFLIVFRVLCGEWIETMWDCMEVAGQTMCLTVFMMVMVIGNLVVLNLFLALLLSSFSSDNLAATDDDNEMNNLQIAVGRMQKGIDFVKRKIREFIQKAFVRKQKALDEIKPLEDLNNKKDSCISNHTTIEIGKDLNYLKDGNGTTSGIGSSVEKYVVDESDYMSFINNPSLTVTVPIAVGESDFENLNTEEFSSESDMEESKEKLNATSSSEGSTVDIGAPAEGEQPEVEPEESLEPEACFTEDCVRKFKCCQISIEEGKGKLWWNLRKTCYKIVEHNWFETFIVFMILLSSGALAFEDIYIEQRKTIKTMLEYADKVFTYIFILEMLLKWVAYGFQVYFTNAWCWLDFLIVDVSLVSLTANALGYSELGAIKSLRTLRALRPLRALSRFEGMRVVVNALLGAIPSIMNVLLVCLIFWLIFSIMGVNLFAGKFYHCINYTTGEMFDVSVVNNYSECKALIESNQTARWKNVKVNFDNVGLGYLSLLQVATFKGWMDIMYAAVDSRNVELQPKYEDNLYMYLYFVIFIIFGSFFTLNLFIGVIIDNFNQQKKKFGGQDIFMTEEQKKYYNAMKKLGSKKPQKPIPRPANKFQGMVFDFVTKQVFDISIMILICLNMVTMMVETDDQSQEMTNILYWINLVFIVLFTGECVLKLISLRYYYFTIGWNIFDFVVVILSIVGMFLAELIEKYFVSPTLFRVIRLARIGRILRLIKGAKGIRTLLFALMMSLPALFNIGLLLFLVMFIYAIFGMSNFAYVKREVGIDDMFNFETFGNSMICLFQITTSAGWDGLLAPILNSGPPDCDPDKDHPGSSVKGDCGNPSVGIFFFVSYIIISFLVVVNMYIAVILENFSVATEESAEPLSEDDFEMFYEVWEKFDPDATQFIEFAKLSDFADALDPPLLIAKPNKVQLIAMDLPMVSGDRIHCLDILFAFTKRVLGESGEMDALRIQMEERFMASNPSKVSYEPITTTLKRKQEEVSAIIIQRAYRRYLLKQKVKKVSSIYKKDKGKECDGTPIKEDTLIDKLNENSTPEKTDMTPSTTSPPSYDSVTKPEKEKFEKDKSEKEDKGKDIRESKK", "experiment": "Inhibition of recombinant human Nav1.2 expressed in HEK293 cells incubated for 3 mins by FRET based membrane potential assay", "type": "cell-based"}, "Rattus norvegicus [10]": {"organism": "Rattus norvegicus", "experiment": "animal or person", "settings": "Sprague-Dawley", "remark": "listed apart in the source"}, "physchem [11]": {"experiment": "physchem", "settings": "octanol/water"}, "in vitro [12]": {"experiment": "in vitro", "settings": "PAMPA"}, "in vivo [13]": {"experiment": "in vivo", "settings": "Sprague-Dawley, rat, po", "remark": "listed apart in the source"}, "physchem [14]": {"experiment": "physchem", "settings": "phosphate buffer"}, "[15]": {"settings": "rat, in vivo, po"}, "[16]": {"experiment": "Cardiotoxicity in conscious dog CV model assessed as effect on mean arterial pressure upto […] microg/ml […]", "type": "toxicity, Canis lupus familiaris", "settings": "dose < 5.5 µg/ml"}, "[17]": {"experiment": "Toxicity in rat assessed as phospholipidosis measured after 5 days", "settings": "120 h, time 5 day"}, "[18]": {"target": "Voltage-gated inwardly rectifying potassium channel KCNH2 (Homo sapiens, UniProt Q12809)", "sequence (Q12809 whole entry)": "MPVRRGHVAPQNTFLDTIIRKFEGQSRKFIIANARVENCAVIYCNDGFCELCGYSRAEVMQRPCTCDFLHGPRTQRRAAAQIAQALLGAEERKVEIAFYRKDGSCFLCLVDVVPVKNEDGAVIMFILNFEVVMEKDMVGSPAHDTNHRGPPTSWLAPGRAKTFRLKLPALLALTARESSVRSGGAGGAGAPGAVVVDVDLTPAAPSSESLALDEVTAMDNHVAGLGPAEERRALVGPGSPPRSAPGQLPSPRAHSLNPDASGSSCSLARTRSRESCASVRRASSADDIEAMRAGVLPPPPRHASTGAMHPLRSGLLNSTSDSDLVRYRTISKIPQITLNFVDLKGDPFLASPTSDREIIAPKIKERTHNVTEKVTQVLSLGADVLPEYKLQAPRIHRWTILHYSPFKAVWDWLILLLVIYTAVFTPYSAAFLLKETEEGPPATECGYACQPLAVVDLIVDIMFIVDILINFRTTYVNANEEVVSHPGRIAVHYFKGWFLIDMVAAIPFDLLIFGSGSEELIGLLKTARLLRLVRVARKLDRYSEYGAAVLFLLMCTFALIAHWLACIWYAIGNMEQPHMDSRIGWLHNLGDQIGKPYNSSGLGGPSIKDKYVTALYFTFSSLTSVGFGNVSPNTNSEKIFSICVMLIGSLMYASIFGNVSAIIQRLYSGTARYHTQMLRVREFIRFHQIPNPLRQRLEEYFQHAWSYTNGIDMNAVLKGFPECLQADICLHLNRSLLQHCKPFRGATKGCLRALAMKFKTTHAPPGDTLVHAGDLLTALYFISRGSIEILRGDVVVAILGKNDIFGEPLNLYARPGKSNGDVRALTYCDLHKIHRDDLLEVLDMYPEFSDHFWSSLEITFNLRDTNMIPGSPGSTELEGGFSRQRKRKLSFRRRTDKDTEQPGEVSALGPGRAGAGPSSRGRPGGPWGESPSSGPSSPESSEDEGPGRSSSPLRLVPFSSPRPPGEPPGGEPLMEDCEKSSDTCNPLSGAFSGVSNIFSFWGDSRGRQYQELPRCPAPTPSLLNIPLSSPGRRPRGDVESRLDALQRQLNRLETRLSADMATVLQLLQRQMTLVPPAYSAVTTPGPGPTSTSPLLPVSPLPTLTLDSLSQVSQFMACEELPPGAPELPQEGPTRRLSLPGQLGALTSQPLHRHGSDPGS"}, "Rattus norvegicus [19]": {"organism": "Rattus norvegicus", "experiment": "animal or person", "settings": "Sprague-Dawley", "remark": "listed apart in the source"}, "[20]": {"experiment": "Drug concentration in brain of monoiodoacetate-induced Sprague-Dawley rat model of osteoarthritis at 10 mg/kg, po administered for 5 days and measured after 15 mins", "type": "ADME, organism-based", "settings": "time 5 day, read-out: Ct"}, "[21]": {"experiment": "Drug concentration in brain of monoiodoacetate-induced Sprague-Dawley rat model of osteoarthritis at 30 mg/kg, po administered for 5 days and measured after 15 mins", "type": "ADME, organism-based", "settings": "time 5 day, read-out: Ct"}, "[22]": {"experiment": "Drug concentration in brain of monoiodoacetate-induced Sprague-Dawley rat model of osteoarthritis at 3 mg/kg, po administered for 5 days and measured after 15 mins", "type": "ADME, organism-based", "settings": "time 5 day, read-out: Ct"}, "[23]": {"experiment": "Toxicity in rat assessed as phospholipidosis measured after 10 days", "settings": "240 h, time 10 day"}, "Rattus norvegicus [24]": {"system": "Rattus norvegicus", "experiment": "Antinociceptive activity in monoiodoacetate-induced Sprague-Dawley rat model of osteoarthritis at 3 mg/kg, po administered for 5 days and measured after 180 mins by grip force testing relative to control", "type": "functional", "settings": "time 5 day"}, "Rattus norvegicus [25]": {"system": "Rattus norvegicus", "experiment": "Antinociceptive activity in monoiodoacetate-induced Sprague-Dawley rat model of osteoarthritis at 10 mg/kg, po administered for 5 days and measured after 180 mins by grip force testing relative to control", "type": "functional", "settings": "time 5 day"}, "Rattus norvegicus [26]": {"system": "Rattus norvegicus", "experiment": "Antinociceptive activity in monoiodoacetate-induced Sprague-Dawley rat model of osteoarthritis at 30 mg/kg, po administered for 5 days and measured after 180 mins by grip force testing relative to control", "type": "functional", "settings": "time 5 day"}, "[27]": {"settings": "rat, microsomes, 0.5 h, 0.5 µM"}, "[28]": {"experiment": "Drug concentration in plasma of Sprague-Dawley rat model of L5/L6 spinal nerve ligation-induced neuropathic pain at 10 mg/kg, ip by LC/MS analysis", "type": "ADME, organism-based", "settings": "in vivo"}, "Rattus norvegicus [29]": {"system": "Rattus norvegicus", "experiment": "Antiallodynic activity in Sprague-Dawley rat model of L5/L6 spinal nerve ligation-induced neuropathic pain assessed as maximal possible effect at 30 mg/kg, ip", "type": "functional"}, "[30]": {"target": "Sodium channel protein type 10 subunit alpha (Homo sapiens, UniProt Q9Y5Y9)", "experiment": "Inhibition of human Nav1.8 by FRET based membrane potential assay"}, "[31]": {"target": "Sodium channel protein type 5 subunit alpha (Homo sapiens, UniProt Q14524)", "sequence (Q14524 whole entry)": "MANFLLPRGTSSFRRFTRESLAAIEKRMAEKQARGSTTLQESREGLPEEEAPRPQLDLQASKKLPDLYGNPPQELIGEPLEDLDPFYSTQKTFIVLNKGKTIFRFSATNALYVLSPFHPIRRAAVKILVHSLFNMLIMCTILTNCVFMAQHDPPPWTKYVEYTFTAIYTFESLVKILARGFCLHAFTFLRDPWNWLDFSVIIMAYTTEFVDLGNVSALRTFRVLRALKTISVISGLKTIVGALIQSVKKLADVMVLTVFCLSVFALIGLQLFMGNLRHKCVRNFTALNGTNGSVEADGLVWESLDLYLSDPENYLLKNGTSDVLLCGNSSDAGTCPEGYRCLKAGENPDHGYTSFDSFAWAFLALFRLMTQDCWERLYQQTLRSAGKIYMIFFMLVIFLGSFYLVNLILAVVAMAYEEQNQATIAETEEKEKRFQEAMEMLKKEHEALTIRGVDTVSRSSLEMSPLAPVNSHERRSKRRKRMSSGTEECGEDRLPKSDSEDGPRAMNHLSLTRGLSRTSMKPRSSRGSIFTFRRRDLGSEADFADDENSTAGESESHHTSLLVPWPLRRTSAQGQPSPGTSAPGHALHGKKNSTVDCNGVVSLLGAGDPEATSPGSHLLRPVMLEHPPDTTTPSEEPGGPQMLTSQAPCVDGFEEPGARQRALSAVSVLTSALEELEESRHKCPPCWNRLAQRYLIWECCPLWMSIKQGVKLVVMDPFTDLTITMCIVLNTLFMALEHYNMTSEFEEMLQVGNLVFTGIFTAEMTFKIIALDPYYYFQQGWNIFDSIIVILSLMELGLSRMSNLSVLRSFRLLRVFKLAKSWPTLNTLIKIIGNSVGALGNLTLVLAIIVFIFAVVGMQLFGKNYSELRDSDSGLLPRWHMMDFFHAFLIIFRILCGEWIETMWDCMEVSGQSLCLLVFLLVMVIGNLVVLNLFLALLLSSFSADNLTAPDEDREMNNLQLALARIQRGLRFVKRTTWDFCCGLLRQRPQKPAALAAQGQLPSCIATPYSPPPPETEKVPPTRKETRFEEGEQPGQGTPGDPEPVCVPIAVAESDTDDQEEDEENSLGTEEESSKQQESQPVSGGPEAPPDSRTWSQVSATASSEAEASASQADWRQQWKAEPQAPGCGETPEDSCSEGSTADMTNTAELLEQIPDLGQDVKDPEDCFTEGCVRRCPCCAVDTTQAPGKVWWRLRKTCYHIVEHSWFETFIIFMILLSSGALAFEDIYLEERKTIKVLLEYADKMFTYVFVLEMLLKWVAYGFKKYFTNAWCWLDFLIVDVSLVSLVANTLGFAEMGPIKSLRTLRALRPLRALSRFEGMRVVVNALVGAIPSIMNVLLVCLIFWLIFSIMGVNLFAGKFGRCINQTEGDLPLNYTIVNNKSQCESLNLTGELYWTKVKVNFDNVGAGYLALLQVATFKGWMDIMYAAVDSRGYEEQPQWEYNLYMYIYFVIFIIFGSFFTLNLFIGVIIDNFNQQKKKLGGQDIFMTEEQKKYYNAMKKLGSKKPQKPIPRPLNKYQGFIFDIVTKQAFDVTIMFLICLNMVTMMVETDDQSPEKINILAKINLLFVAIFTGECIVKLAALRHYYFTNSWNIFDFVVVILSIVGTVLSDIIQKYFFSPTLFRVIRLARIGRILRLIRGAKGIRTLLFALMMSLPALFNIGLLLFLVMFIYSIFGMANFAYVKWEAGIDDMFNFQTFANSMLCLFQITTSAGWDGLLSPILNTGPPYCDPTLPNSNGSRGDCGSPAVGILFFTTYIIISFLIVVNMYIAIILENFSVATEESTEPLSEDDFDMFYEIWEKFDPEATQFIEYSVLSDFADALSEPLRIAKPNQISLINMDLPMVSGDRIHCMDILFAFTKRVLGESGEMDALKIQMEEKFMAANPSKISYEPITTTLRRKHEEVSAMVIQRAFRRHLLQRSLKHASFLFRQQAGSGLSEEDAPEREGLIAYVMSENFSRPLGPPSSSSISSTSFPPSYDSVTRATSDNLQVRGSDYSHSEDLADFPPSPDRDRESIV"}, "Rattus norvegicus [32]": {"system": "Rattus norvegicus", "experiment": "Antiallodynic activity in Sprague-Dawley rat model of L5/L6 spinal nerve ligation-induced neuropathic pain assessed as maximal possible effect at 3 mg/kg, ip", "type": "functional"}, "MDR1": {"system": "MDR1", "experiment": "in vitro", "settings": "dog, MDCK-MDR1"}, "in vitro [33]": {"experiment": "in vitro", "settings": "dog, MDCK"}, "[34]": {"experiment": "Drug concentration in plasma of Sprague-Dawley rat model of L5/L6 spinal nerve ligation-induced neuropathic pain at 30 mg/kg, ip by LC/MS analysis", "type": "ADME, organism-based", "settings": "in vivo"}, "[35]": {"target": "Sodium channel protein type 9 subunit alpha (Homo sapiens, UniProt Q15858)"}, "[36]": {"experiment": "Drug concentration in plasma of Sprague-Dawley rat model of L5/L6 spinal nerve ligation-induced neuropathic pain at 3 mg/kg, ip by LC/MS analysis", "type": "ADME, organism-based", "settings": "in vivo"}, "in vivo [37]": {"experiment": "in vivo", "settings": "Sprague-Dawley, rat, iv"}, "[38]": {"settings": "human, microsomes, 0.5 h, 0.5 µM"}, "Rattus norvegicus [39]": {"system": "Rattus norvegicus", "experiment": "Antiallodynic activity in Sprague-Dawley rat model of L5/L6 spinal nerve ligation-induced neuropathic pain assessed as maximal possible effect at 10 mg/kg, ip", "type": "functional"}}}
{"smiles": "O=C(c1ccc2cc(Oc3ccc(C(F)(F)F)cn3)ccc2n1)N1CCNCC1", "values": [{"measurement": "concentration at 120 h", "setting": "[1]", "result": 1060, "unit": "ng/mL"}, {"measurement": "bioavailability", "setting": "in vivo [2]", "result": 98, "unit": "%"}, {"measurement": "EC50", "setting": "Rattus norvegicus [3]", "result": 0.17, "unit": "µg/mL"}, {"measurement": "concentration at 120 h", "setting": "[4]", "result": 510, "unit": "ng/mL"}, {"measurement": "Activity", "setting": "[5]", "result": "Non-Toxic"}, {"measurement": "Activity", "setting": "[6]", "result": "Non-Toxic"}, {"measurement": "Kp uu", "setting": "[7]", "result": 0.08}, {"measurement": "concentration at 120 h", "setting": "[8]", "result": 160, "unit": "ng/mL"}, {"measurement": "IC50", "setting": "[9]", "result": 6.6, "unit": "µM"}, {"measurement": "EC50", "setting": "Rattus norvegicus [10]", "result": 0.04, "unit": "µg/mL"}, {"measurement": "logD", "setting": "physchem [11]", "result": 3.1}, {"measurement": "Papp", "setting": "in vitro [12]", "result": 4.7, "unit": "×10⁻⁶ cm/s"}, {"measurement": "half-life", "setting": "in vivo [13]", "result": 12.8, "unit": "h"}, {"measurement": "solubility", "setting": "physchem [14]", "result": 200, "unit": "µM"}, {"measurement": "Vdss", "setting": "[15]", "result": 11.5, "unit": "L/kg"}, {"measurement": "Activity", "setting": "[16]", "result": "Non-Toxic"}]}
{"smiles": "O=C(c1ccc2cc(Oc3ccc(C(F)F)cn3)ccc2n1)N1CCNCC1", "values": [{"measurement": "concentration at 120 h", "setting": "[1]", "result": 9110, "unit": "ng/mL"}, {"measurement": "bioavailability", "setting": "in vivo [2]", "result": 96, "unit": "%"}, {"measurement": "concentration at 120 h", "setting": "[4]", "result": 4170, "unit": "ng/mL"}, {"measurement": "Activity", "setting": "[17]", "result": "Non-Toxic"}, {"measurement": "IC50", "setting": "[18]", "result": 29.5, "unit": "µM"}, {"measurement": "Kp uu", "setting": "[7]", "result": 0.14}, {"measurement": "concentration at 120 h", "setting": "[8]", "result": 1000, "unit": "ng/mL"}, {"measurement": "IC50", "setting": "[9]", "result": 12.8, "unit": "µM"}, {"measurement": "EC50", "setting": "Rattus norvegicus [19]", "result": 0.45, "unit": "µg/mL"}, {"measurement": "logD", "setting": "physchem [11]", "result": 2.4}, {"measurement": "concentration at 120 h", "setting": "[20]", "result": 720, "unit": "ng/mL"}, {"measurement": "Papp", "setting": "in vitro [12]", "result": 3.3, "unit": "×10⁻⁶ cm/s"}, {"measurement": "concentration at 120 h", "setting": "[21]", "result": 1560, "unit": "ng/mL"}, {"measurement": "concentration at 120 h", "setting": "[22]", "result": 200, "unit": "ng/mL"}, {"measurement": "half-life", "setting": "in vivo [13]", "result": 3.38, "unit": "h"}, {"measurement": "solubility", "setting": "physchem [14]", "result": 150, "unit": "µM"}, {"measurement": "Vdss", "setting": "[15]", "result": 5.42, "unit": "L/kg"}, {"measurement": "Activity", "setting": "[23]", "result": "Toxic"}]}
{"smiles": "CS(=O)(=O)CCNC(=O)c1ccc2cc(Oc3ccc(C(F)(F)F)cn3)ccc2n1", "values": [{"measurement": "bioavailability", "setting": "in vivo [2]", "result": 80.4, "unit": "%"}, {"measurement": "IC50", "setting": "[18]", "result": 30, "unit": "µM"}, {"measurement": "Activity", "setting": "Rattus norvegicus [24]", "result": 35, "unit": "%"}, {"measurement": "Activity", "setting": "Rattus norvegicus [25]", "result": 68, "unit": "%"}, {"measurement": "Papp", "setting": "in vitro [12]", "result": 18, "unit": "×10⁻⁶ cm/s"}, {"measurement": "solubility", "setting": "physchem [14]", "result": 29, "unit": "µM"}, {"measurement": "Activity", "setting": "Rattus norvegicus [26]", "result": 63, "unit": "%"}]}
{"smiles": "CN1CCN(C(=O)COc2ccc3cc(Oc4ccccn4)ccc3n2)CC1", "values": [{"measurement": "CLH", "setting": "[27]", "result": 567, "unit": "mL/min/kg"}, {"measurement": "Cp", "setting": "[28]", "result": 400, "unit": "ng/mL"}, {"measurement": "MPE", "setting": "Rattus norvegicus [29]", "result": 59, "unit": "%"}, {"measurement": "bioavailability", "setting": "in vivo [2]", "result": 10, "unit": "%"}, {"measurement": "IC50", "setting": "[30]", "result": 1.83, "unit": "µM"}, {"measurement": "IC50", "setting": "[18]", "result": 30, "unit": "µM"}, {"measurement": "IC50", "setting": "[31]", "result": 33, "unit": "µM"}, {"measurement": "MPE", "setting": "Rattus norvegicus [32]", "result": 10, "unit": "%"}, {"measurement": "Kp uu", "setting": "[7]", "result": 0.88}, {"measurement": "efflux ratio", "setting": "MDR1", "result": 3.7}, {"measurement": "Papp", "setting": "in vitro [33]", "result": 33.4, "unit": "×10⁻⁶ cm/s"}, {"measurement": "Cp", "setting": "[34]", "result": 1930, "unit": "ng/mL"}, {"measurement": "IC50", "setting": "[9]", "result": 20, "unit": "µM"}, {"measurement": "logD", "setting": "physchem [11]", "result": 2.9}, {"measurement": "IC50", "setting": "[35]", "result": 3.13, "unit": "µM"}, {"measurement": "half-life", "setting": "in vivo [13]", "result": 3.38, "unit": "h"}, {"measurement": "solubility", "setting": "physchem [14]", "result": 176, "unit": "µM"}, {"measurement": "Cp", "setting": "[36]", "result": 110, "unit": "ng/mL"}, {"measurement": "clearance", "setting": "in vivo [37]", "result": 54, "unit": "mL/min/kg"}, {"measurement": "CLH", "setting": "[38]", "result": "< 33", "unit": "mL/min/kg"}, {"measurement": "MPE", "setting": "Rattus norvegicus [39]", "result": 30, "unit": "%"}]}
